No end group written: not given here.
Assay: Standard 24-hour thirst assay: acute effect of icv GUS3 peptides on food and water intake
Format: in vivo, Sprague Dawley rats
Conditions: rats thirsted 24 h, not food deprived, single ICV injection in 5 uL vehicle 15 min before reintroduction of water, intake recorded at 30 min, 60 min, 2 h, 3 h; for effect on food intake: vs vehicle (FIG. 8A); for effect on water intake: vs vehicle (FIG. 8B)
Protocol: Animals are injected with the substances after a 24 hr thirst period and food and water intake is monitored at 30 minutes, 60 minutes, 2 hours, 3 hours, and 24 hours.
Thirty-six regular Sprague Dawley rats (Charles River, Germany) weighing approximately 250 gram at the start of the experiment were used for these experiments. All animals were kept under a 12/12 L/D cycle (lights on at 0300) and in temperature and humidity controlled rooms. The animals were allowed a 5 day acclimatisation period after arrival to the test facility in order to reduce stress effects.
All experiments are conducted in accordance with internationally accepted principles for the care and use of laboratory animals and are approved by the Danish committee for animal research. Under Hypnorm Dormicum (Nomeco A/S, Copenhagen Denmark) anesthesia all animals were stereotaxically equipped with a stainless steel cannula aimed at the lateral ventricle (1 mm caudal and 1.5 mm lateral from bregma and 4 mm depth). During a 7 day recovery period, the rats were handled daily in order to accustom them to the experimental procedure.
The following peptides were ordered from Schafer-N, Copenhagen (see also example 2):
The animals were divided into 4 weight-matched groups prior to the test: • Group 4 Vehicle control (5 μL PBS) • Group 3 GUS3 C (10 ug) icv in 5 uL vehicle • Group 2 GUS3 M (1 ug) icv in 5 uL vehicle • Group 1 GUS3 N (10 ug) icv in 5 uL vehicle
The rats were thirsted but not food deprived twenty-four hours before the experiment. Fifteen minutes prior to reintroduction of water (time=0) the animals received an ICV injection of […] of one of the 3 peptides dissolved in 5 μL vehicle or of vehicle alone. Water and food intake was recorded at time=30 minutes, 60 minutes, 2 hour, 3 hours and 24 hours.
The data are evaluated by relevant statistical analyses (Statview software). Results are presented as mean±SEM (standard error of the mean). Statistical evaluation of the data is carried out using one-way analysis of variance (ANOVA) with appropriate post-hoc analysis between control and treatment groups in cases where statistical significance is established (p<0.05; Scheffe or Bonferoni).

With “TIARQTARCAC (listed as Homo sapiens) [GUS3 M]” the “effect on food intake” value was “did not seem to affect” and the “effect on water intake” value was “did not seem to affect”.

With “ac-QFLKEGQLAAGTCEIVTLDRDSSQP (Ac-QFLKEGQLAAGTCEIVTLDRDSSQP; listed as Homo sapiens) [GUS3 N]” the “effect on food intake” value was “did not seem to affect” and the “effect on water intake” value was “did not seem to affect”.

Reference: patent publication US20090214514A1, “GUS3 NEUROPEPTIDES FOR REGULATING HYPOTHALAMIC FUNCTION” (priority 2004, published 2009)
